A value given as a limit tells only on which side of the number the result lay.

What all share (assay type): cell-based
In experiment [1] the test system is influenza A virus A/PR/8/34 (H1N1). The experiment is described as follows: microbe, parasite or virus in culture. The following applies: Influenza A virus, MDCK, 24 h; read-out: IC50 H1N1 PR8 strain.
In experiment [2] the test system is influenza A virus A/Aichi/2/68 (H3N2). The experiment is described as follows: microbe, parasite or virus in culture. The following applies: Influenza A virus, H3N2, MDCK, 24 h; read-out: IC50 H3N2 Aichi strain.
The test system of experiment [3] is influenza A virus (A/PR/8/34 (H1N1)). The following applies: 100 µM, A/PR8/34 (H1N1), western blotting. In general terms: In western blotting, separated proteins are transferred to a membrane and probed.

Turning to `CC(C)C1NC(C(=O)O)C23c4c5c6c7c8c9c(c%10c%11c2c2c4c4c%12c5c5c6c6c8c8c%13c9c9c%10c%10c%11c%11c2c2c4c4c%12c%12c5c5c6c8c6c8c%13c9c9c%10c%10c%11c2c2c4c4c%12c5c6c5c8c9c%10c2c45)C713` (centres unmarked) [no. 5, 5-isopropyl [60]fullerenopyrrolidine-2-carboxylic acid], the results for the IC50 in experiment [1] and in experiment [2] were 37 µM and more than 100 µM, respectively. Also, the “expression levels of influenza A NP and NS1 proteins compared with DMSO-treated cells” value in experiment [3] is “reduced”.

`O=C(O)CN1C(C(=O)O)C23c4c5c6c7c8c9c(c%10c%11c2c2c4c4c%12c5c5c6c6c8c8c%13c9c9c%10c%10c%11c%11c2c2c4c4c%12c%12c5c5c6c8c6c8c%13c9c9c%10c%10c%11c2c2c4c4c%12c5c6c5c8c9c%10c2c45)C73C1C(=O)O` (centres unmarked) [no. 4, 1-carboxymethyl [60]fullerenopyrrolidine-2,5-dicarboxylic acid]: the IC50 came out at 70 µM in experiment [1] and 91 µM in experiment [2].

Usually IC50 stands for the concentration needed to halve the response being measured.

These data come from article PMC3681905, “Anti-Influenza Activity of C60 Fullerene Derivatives” (PLoS ONE, 2013).
